Measurements published in US20240261258A1, “Presurgical Perineural Administration of Resiniferatoxin For Reduction of Post-Operative Pain” (Sorrento Therapeutics, Inc., priority 2021, published 2024).

Columns and labels:
Assay type in all cases: in vivo, dog
[1] = system: healthy dogs undergoing TPLO surgery; experiment: Post-surgical evaluations (weight bearing, withdrawal reflex, proprioception, VAS, GCPS, injection and surgical site)
Description: Before the subjects underwent surgery, baseline data including a physical examination, hindlimb motor evaluation, hindlimb sensory evaluation, site of injection evaluation, and surgical site evaluation were collected. During the 8-week post-operative follow-up period on day 1, 2, 3, 14, 28, and 56 all the above parameters were reevaluated by a researcher who was blinded to the treatment.
After observing the animal in its cage and after evaluating the subject walking, the overall pain was scored using a visual analog scale (VAS) and the short form of the Glasgow composite pain scale (GCPS). The VAS consisted of a straight line 10 cm long with the left end, 0 cm, indicating no pain and the right end, 10 cm, indicating unbearable pain. The user placed a mark on the line that best represented the intensity of the subject's pain. Animals with a VAS greater than 4 cm and a GCPS greater that 6 were considered painful and received intramuscular hydromorphone at 0.1 mg/kg.
(§1) The injection site of RTX or local anesthetic was evaluated by visual examination (normal, red, swollen) and palpation (no pain, mild, severe). The surgical site was evaluated by visual examination (normal, red, swollen) and with the aid of an algometer. With the dog in lateral recumbency, the tip of the algometer was placed on the surgical site and pressure was manually applied until the animal moved the leg. During the baseline data collection, several measurements were taken until 3 measurements were within ±1 Newton (N). The number recorded corresponded to the average of these 3 values. After surgery, the force was applied only once. Data were collected from both the left (treated) and the right (non-treated) hindlimbs.
The withdrawal reflex and proprioception were assessed and scored as normal, decreased, or absent. The motor function was evaluated by encouraging the dog to stand and walk. Weight bearing standing and walking was scored as: normal, decreased (dog uses the leg but prefers the non-operated leg), or absent (dog avoids using the operated leg).

[2] = system: healthy dogs undergoing TPLO surgery; experiment: Algometer measurements on the surgical site
Procedure: as §1
Mean plus or minus the standard deviation (±SD) force in Newton was recorded at the pressure applied on the surgical incision when the subject moved the leg from the algometer. The left side was the treated stifle.

[3] = system: CGRP immunopositive axons of sciatic and femoral nerves; experiment: Quantification of CGRP immunopositive nerve fibers
Procedure: FIGS. 1A-J show density of CGRP immunopositive axons in representative confocal images of ipsilateral (left; A-D) and contralateral (right; E-H) sciatic nerve from dogs post-TPLO and after different treatment and doses of RTX. Each bar represents the mean±SEM. Data were analyzed by one-way ANOVA followed by Tukey post hoc test; *p<0.05. FIGS. 1I-J are bar graphs of the density of CGRP immunopositive axons, (density of nerve fibers in mm/mm3) in ipsilateral (I) and contralateral (J) sciatic nerves as measured in n subjects in each group.
FIGS. 3A-J show CGRP immunopositive axon density in representative confocal images of ipsilateral (left; A-D) and contralateral (right; E-H) femoral nerve from dogs post-TPLO surgery and after different treatment and doses of RTX. Each bar represents the mean±SEM. Data were analyzed by one-way ANOVA followed by Tukey post hoc test; *p<0.05. FIGS. 3I-J are bar graphs of the density of CGRP immunopositive axons (density of nerve fibers in mm/mm3) in ipsilateral (I), and contralateral (J) femoral nerves as measured in n subjects in each group.
The effects of different routes of administration and/or different doses of RTX on the density of CGRP immunopositive axons in the ipsilateral (left) and contralateral (right) sciatic nerves are shown in FIG. 1. […] However, statistical significance was observed only with the dose of 12.5 μg (25 μg total; p=0.0184) per nerve of RTX. FIGS. 1E-H show the effect of different treatment and doses of RTX on the density of CGRP nerve axons innervating the contralateral (right) sciatic nerve from animals post-TPLO.

[4] = Group 1 High, 25 μg total F/Sc nerve block
[5] = Group 2 Low, 6.25 μg total F/Sc nerve block
[6] = all subjects and timepoints, cutoff for painful

C=C(C)[C@]12C[C@@H](C)[C@@]34O[C@](Cc5ccccc5)(O[C@@H]1[C@@H]3C=C(COC(=O)Cc1ccc(O)c(OC)c1)C[C@]1(O)C(=O)C(C)=C[C@@H]41)O2 [RTX, resiniferatoxin]
Use of leg within 2 hours of surgery: Intermittent toe touching (dogs/group) [1, 4]: touching: 2/4
Use of leg within 2 hours of surgery: Normal (dogs/group) [1, 4]: Normal: 2/4
Use of leg within 2 hours of surgery: Absent (dogs/group) [1, 5]: Absent: 1/4
Use of leg within 2 hours of surgery: Intermittent toe touching (dogs/group) [1, 5]: touching: 3/4;
Use of leg within 2 hours of surgery: Absent (dogs/group) ([1]; Group 3 Local, 50 μg on bone incision + 5 mg bupivacaine block): Absent: 4/4
Injection site finding in one subject ([1]; a subject in group 1, both resolved within 24 hours): minimal reaction upon palpation at day 1 and a small red area at day 3
Injection site finding in one subject ([1]; a subject in group 3): small non-painful red area at day 14
Injection site appearance ([1]; all animals): normal
Withdrawal reflex ([1]; all dogs at all time points): normal
Time for redness and swollen areas around the surgical incision to resolve ([1]; all dogs, regardless of group, after surgery): 2 to 3 days
GCPS (short form Glasgow composite pain scale) score [1, 6]: < 6
VAS pain score [1, 6]: < 4 cm
Weight bearing scores ([1]; day 14, 28, and 56, all dogs except for one in group 2 (interdigital cyst)): normal scores
Efficacy on post-operative pain ([1]; perineural injection at 6.25 μg and 25 μg RTX total in dogs undergoing TPLO surgery): short-term efficacy in treating post-operative pain
Algometer force on surgical site when the dog moved the leg (mean ± SD) ([2]; Baseline, L (treated) hindlimb, Group 1 High, 25 μg): 7.4 ± 3.1 Newton
Algometer force on surgical site when the dog moved the leg (mean ± SD) ([2]; Baseline, L (treated) hindlimb, Group 2 Low, 6.25 μg): 6.2 ± 2.3 Newton
Algometer force on surgical site when the dog moved the leg (mean ± SD) ([2]; Baseline, L (treated) hindlimb, Group 3 Local, 50 μg): 5.7 ± 2.5 Newton
Algometer force on surgical site when the dog moved the leg (mean ± SD) ([2]; Baseline, R (non-treated) hindlimb, Group 1 High, 25 μg): 7.1 ± 3.7 Newton
Algometer force on surgical site when the dog moved the leg (mean ± SD) ([2]; Baseline, R (non-treated) hindlimb, Group 2 Low, 6.25 μg): 7.0 ± 2.3 Newton
Algometer force on surgical site when the dog moved the leg (mean ± SD) ([2]; Baseline, R (non-treated) hindlimb, Group 3 Local, 50 μg): 8.5 ± 2.4 Newton
Algometer force on surgical site when the dog moved the leg (mean ± SD) ([2]; Day 1, L (treated) hindlimb, Group 1 High, 25 μg): 7.4 ± 5.9 Newton
Algometer force on surgical site when the dog moved the leg (mean ± SD) ([2]; Day 1, L (treated) hindlimb, Group 2 Low, 6.25 μg): 5.0 ± 2.1 Newton
Algometer force on surgical site when the dog moved the leg (mean ± SD) ([2]; Day 1, L (treated) hindlimb, Group 3 Local, 50 μg): 9.2 ± 2.1 Newton
Algometer force on surgical site when the dog moved the leg (mean ± SD) ([2]; Day 1, R (non-treated) hindlimb, Group 1 High, 25 μg): 6.1 ± 2.3 Newton
Algometer force on surgical site when the dog moved the leg (mean ± SD) ([2]; Day 1, R (non-treated) hindlimb, Group 2 Low, 6.25 μg): 3.8 ± 1.9 Newton
Algometer force on surgical site when the dog moved the leg (mean ± SD) ([2]; Day 1, R (non-treated) hindlimb, Group 3 Local, 50 μg): 9.6 ± 6.3 Newton
Algometer force on surgical site when the dog moved the leg (mean ± SD) ([2]; Day 2, L (treated) hindlimb, Group 1 High, 25 μg): 5.4 ± 3.3 Newton
Algometer force on surgical site when the dog moved the leg (mean ± SD) ([2]; Day 2, L (treated) hindlimb, Group 2 Low, 6.25 μg): 5.0 ± 2.7 Newton
Algometer force on surgical site when the dog moved the leg (mean ± SD) ([2]; Day 2, L (treated) hindlimb, Group 3 Local, 50 μg): 8.5 ± 1.5 Newton
Algometer force on surgical site when the dog moved the leg (mean ± SD) ([2]; Day 2, R (non-treated) hindlimb, Group 1 High, 25 μg): 4.9 ± 2.1 Newton
Algometer force on surgical site when the dog moved the leg (mean ± SD) ([2]; Day 2, R (non-treated) hindlimb, Group 2 Low, 6.25 μg): 3.7 ± 2.0 Newton
Algometer force on surgical site when the dog moved the leg (mean ± SD) ([2]; Day 2, R (non-treated) hindlimb, Group 3 Local, 50 μg): 6.5 ± 3.5 Newton
Algometer force on surgical site when the dog moved the leg (mean ± SD) ([2]; Day 3, L (treated) hindlimb, Group 1 High, 25 μg): 5.3 ± 1.5 Newton
Algometer force on surgical site when the dog moved the leg (mean ± SD) ([2]; Day 3, L (treated) hindlimb, Group 2 Low, 6.25 μg): 5.9 ± 4.2 Newton
Algometer force on surgical site when the dog moved the leg (mean ± SD) ([2]; Day 3, L (treated) hindlimb, Group 3 Local, 50 μg): 7.7 ± 2.0 Newton
Algometer force on surgical site when the dog moved the leg (mean ± SD) ([2]; Day 3, R (non-treated) hindlimb, Group 1 High, 25 μg): 7.1 ± 1.8 Newton
Algometer force on surgical site when the dog moved the leg (mean ± SD) ([2]; Day 3, R (non-treated) hindlimb, Group 2 Low, 6.25 μg): 6.3 ± 1.5 Newton
Algometer force on surgical site when the dog moved the leg (mean ± SD) ([2]; Day 3, R (non-treated) hindlimb, Group 3 Local, 50 μg): 6.5 ± 3.4 Newton
Algometer force on surgical site when the dog moved the leg (mean ± SD) ([2]; Day 14, L (treated) hindlimb, Group 1 High, 25 μg): 5.3 ± 3.9 Newton
Algometer force on surgical site when the dog moved the leg (mean ± SD) ([2]; Day 14, L (treated) hindlimb, Group 2 Low, 6.25 μg): 2.9 ± 1.2 Newton
Algometer force on surgical site when the dog moved the leg (mean ± SD) ([2]; Day 14, L (treated) hindlimb, Group 3 Local, 50 μg): 6.6 ± 4.2 Newton
Algometer force on surgical site when the dog moved the leg (mean ± SD) ([2]; Day 14, R (non-treated) hindlimb, Group 1 High, 25 μg): 5.0 ± 2.3 Newton
Algometer force on surgical site when the dog moved the leg (mean ± SD) ([2]; Day 14, R (non-treated) hindlimb, Group 2 Low, 6.25 μg): 5.2 ± 1.5 Newton
Algometer force on surgical site when the dog moved the leg (mean ± SD) ([2]; Day 14, R (non-treated) hindlimb, Group 3 Local, 50 μg): 4.7 ± 3.5 Newton
Algometer force on surgical site when the dog moved the leg (mean ± SD) ([2]; Day 28, L (treated) hindlimb, Group 1 High, 25 μg): 5.8 ± 2.4 Newton
Algometer force on surgical site when the dog moved the leg (mean ± SD) ([2]; Day 28, L (treated) hindlimb, Group 2 Low, 6.25 μg): 4.5 ± 3.9 Newton
Algometer force on surgical site when the dog moved the leg (mean ± SD) ([2]; Day 28, L (treated) hindlimb, Group 3 Local, 50 μg): 4.4 ± 2.6 Newton
Algometer force on surgical site when the dog moved the leg (mean ± SD) ([2]; Day 28, R (non-treated) hindlimb, Group 1 High, 25 μg): 4.6 ± 3.5 Newton
Algometer force on surgical site when the dog moved the leg (mean ± SD) ([2]; Day 28, R (non-treated) hindlimb, Group 2 Low, 6.25 μg): 2.7 ± 2.1 Newton
Algometer force on surgical site when the dog moved the leg (mean ± SD) ([2]; Day 28, R (non-treated) hindlimb, Group 3 Local, 50 μg): 5.0 ± 1.9 Newton
Algometer force on surgical site when the dog moved the leg (mean ± SD) ([2]; Day 56, L (treated) hindlimb, Group 1 High, 25 μg): 7.0 ± 3.1 Newton
Algometer force on surgical site when the dog moved the leg (mean ± SD) ([2]; Day 56, L (treated) hindlimb, Group 2 Low, 6.25 μg): 4.9 ± 1.8 Newton
Algometer force on surgical site when the dog moved the leg (mean ± SD) ([2]; Day 56, L (treated) hindlimb, Group 3 Local, 50 μg): 10.9 ± 8.7 Newton
Algometer force on surgical site when the dog moved the leg (mean ± SD) ([2]; Day 56, R (non-treated) hindlimb, Group 1 High, 25 μg): 6.3 ± 1.2 Newton
Algometer force on surgical site when the dog moved the leg (mean ± SD) ([2]; Day 56, R (non-treated) hindlimb, Group 2 Low, 6.25 μg): 5.7 ± 1.7 Newton
Algometer force on surgical site when the dog moved the leg (mean ± SD) ([2]; Day 56, R (non-treated) hindlimb, Group 3 Local, 50 μg): 9.0 ± 4.6 Newton
Density of CGRP nerve axons in the contralateral sciatic nerve vs control treatment ([3]; RTX treated groups, p=0.9565, p=0.7911, p=0.7229): no differences
Density of CGRP nerve axons in the contralateral femoral nerve vs control treatment ([3]; any RTX treatment, p=0.9914, p>0.9999, p=0.1760): did not statistically reduce
Density of CGRP nerve axons in the ipsilateral sciatic nerve vs control treatment ([3]; local administration (50 μg), not statistically significant): reduced the density of CGRP nerve axons
Density of CGRP nerve axons in the ipsilateral sciatic nerve vs control treatment ([3]; peri-neural 3.12 μg per nerve (6.25 μg total), not statistically significant): reduced the density of CGRP nerve axons
Density of CGRP nerve axons in the ipsilateral femoral nerve ([3]; peri-neural 12.5 μg per nerve (25 μg total), p=0.0125): statistically reduced
Density of CGRP nerve axons in the ipsilateral sciatic nerve vs control treatment ([3]; peri-neural 12.5 μg per nerve (25 μg total), statistically significant, p=0.0184): reduced the density of CGRP nerve axons
